Series [1] in a line: Cytotoxicity against LPS-induced mouse RAW264.7 cells assessed as cell viability at 1 uM incubated for 24 hrs by MTT assay relative to control. The format is cell-based. The conditions noted are these: LPS-induced RAW264.7 cells, read-out: Activity.
Series [2] relates to RAW264.7. The series is described as follows: Anti-inflammatory activity in mouse RAW264.7 cells assessed as inhibition of LPS-induced NO production at 1 uM preincubated for 1 hr followed by LPS addition and measured after 24 hrs by Griess reagent-based assay relative to control. The format is functional.
The subject of series [3] is RAW264.7. The series is described as follows: Anti-inflammatory activity in mouse RAW264.7 cells assessed as inhibition of LPS-induced PGE2 production at 1 uM preincubated for 1 hr followed by LPS addition and measured after 24 hrs by EIA relative to control. The format is functional.
Series [4] concerns RAW264.7. The series is described as follows: Anti-inflammatory activity in mouse RAW264.7 cells assessed as inhibition of LPS-induced PGE2 production preincubated for 1 hr followed by LPS addition and measured after 24 hrs by EIA. The format is functional, cell-based.
In series [5] the test system is RAW264.7. The series is described as follows: Anti-inflammatory activity in mouse RAW264.7 cells assessed as inhibition of LPS-induced PGE2 production at 0.2 uM preincubated for 1 hr followed by LPS addition and measured after 24 hrs by EIA. The format is functional, cell-based.
In series [6] the test system is RAW264.7. The series is described as follows: Anti-inflammatory activity in mouse RAW264.7 cells assessed as inhibition of LPS-induced IL-6 production at 1 uM preincubated for 1 hr followed by LPS addition and measured after 24 hrs by EIA relative to control. The format is functional.
Series [7] concerns RAW264.7. The series is described as follows: Anti-inflammatory activity in mouse RAW264.7 cells assessed as inhibition of LPS-induced TNFalpha production at 1 uM preincubated for 1 hr followed by LPS addition and measured after 24 hrs by EIA relative to control. The format is functional.
In series [8] the test system is RAW264.7. The series is described as follows: Anti-inflammatory activity in mouse RAW264.7 cells assessed as inhibition of LPS-induced IL-1beta production at 1 uM preincubated for 1 hr followed by LPS addition and measured after 24 hrs by EIA relative to control. The format is functional.

Calls of active or inactive are those of the source. The calls are words filed in the database; no cut-off is given here.

For `COc1ccccc1NC(=O)c1cccc(-c2cc(=O)c3c(OC)c(OC)c(OC)cc3o2)c1`, the viability at 24 h, 1 µM in series [1] turned out to be 101%. Moreover, the inhibition at 1 µM in the series on RAW264.7 [2] was 20.6%; with RAW264.7 [3], 42.5%; with RAW264.7 [6], -32.2%; with RAW264.7 [7], 22.9%; in the series with RAW264.7 [8], 71.2%. Further, in the series on RAW264.7 [4], the IC50 worked out at 1990 nM. For the same compound, in the series on RAW264.7 [4], the inhibition result was “Dose-dependent effect”. The inhibition result in the series on RAW264.7 [5] is “Active”.

Regarding `COc1cc2oc(-c3ccc(NC(=O)c4ccc5c(c4)OCO5)cc3)cc(=O)c2c(OC)c1OC`, the viability at 24 h, 1 µM in series [1] is 63%.

For `COc1cc2oc(-c3ccc(NC(=O)c4ccccc4)cc3)cc(=O)c2c(OC)c1OC`, in series [1], the viability at 24 h, 1 µM amounted to 109%. Further, the inhibition at 1 µM with RAW264.7 [2] is 9.71%; in the series with RAW264.7 [3], 7%; in the series with RAW264.7 [6], -23.2%; in the series on RAW264.7 [7], -8.22%; in the series with RAW264.7 [8], -30.2%.

In the case of `COc1ccc(C(=O)Nc2cccc(-c3cc(=O)c4c(O)c(OC)c(OC)cc4o3)c2)cc1`, the viability at 24 h, 1 µM in series [1] came to 105%. In addition, the inhibition at 1 µM in the series with RAW264.7 [2] is 6.52%; with RAW264.7 [3], 52.7%; in the series on RAW264.7 [6], -7.54%; with RAW264.7 [7], 48.2%; with RAW264.7 [8] it was 34.6%.

For `COc1ccc(C(=O)Nc2ccc(-c3cc(=O)c4c(OC)c(OC)c(OC)cc4o3)cc2)cc1`, the viability at 24 h, 1 µM in series [1] came out at 92.4%. Moreover, the inhibition at 1 µM with RAW264.7 [2] was 3.26%; in the series with RAW264.7 [3], 36.8%; in the series on RAW264.7 [6], -40.9%; in the series on RAW264.7 [7] it was 27.4%; in the series on RAW264.7 [8], -2.33%.

As for `COc1cccc(C(=O)Nc2cccc(-c3cc(=O)c4c(O)c(OC)c(OC)cc4o3)c2)c1`, the viability at 24 h, 1 µM in series [1] was found to be 109%. The inhibition at 1 µM in the series with RAW264.7 [2] is 6.46%; in the series on RAW264.7 [3] it was 35.4%; with RAW264.7 [6] it was -6.92%; in the series on RAW264.7 [7], 33.8%; in the series with RAW264.7 [8], 35.8%.

For the compound `COc1cc2oc(-c3cccc(NC(=O)c4ccc5c(c4)OCO5)c3)cc(=O)c2c(O)c1OC`, the viability at 24 h, 1 µM in series [1] came out at 104%. The inhibition at 1 µM is 7.46% with RAW264.7 [2]; 49.3% in the series on RAW264.7 [3]; -6.67% with RAW264.7 [6]; -12.1% in the series on RAW264.7 [7]; 11.6% in the series with RAW264.7 [8].

For `COc1ccc(NC(=O)c2cccc(-c3cc(=O)c4c(O)c(OC)c(OC)cc4o3)c2)cc1`, the viability at 24 h, 1 µM in series [1] worked out at 92.8%. The inhibition at 1 µM with RAW264.7 [2] was -10.3%; in the series on RAW264.7 [3], 3.44%; in the series with RAW264.7 [6], 10.2%; in the series with RAW264.7 [7] it was -0.1%; in the series on RAW264.7 [8] it was 13.1%.

Take `COc1ccc(NC(=O)c2cccc(-c3cc(=O)c4c(OC)c(OC)c(OC)cc4o3)c2)cc1`: the viability at 24 h, 1 µM in series [1] was 90%. Moreover, the inhibition at 1 µM with RAW264.7 [2] was determined as 6.87%; with RAW264.7 [3], 2.29%; in the series with RAW264.7 [6] it was 19.2%; in the series with RAW264.7 [7], 25.3%; in the series with RAW264.7 [8], 128%.

As for `COc1cc2oc(-c3cccc(C(=O)Nc4ccccc4)c3)cc(=O)c2c(OC)c1OC`, in series [1], the viability at 24 h, 1 µM was found to be 90.6%. Besides, the inhibition at 1 µM in the series with RAW264.7 [2] was 13%; in the series with RAW264.7 [3], -10.9%; with RAW264.7 [6], 12.5%; with RAW264.7 [7], 24.2%; in the series on RAW264.7 [8] it was 86.8%.

Take `COc1cccc(C(=O)Nc2ccc(-c3cc(=O)c4c(OC)c(OC)c(OC)cc4o3)cc2)c1`: the viability at 24 h, 1 µM in series [1] was found to be 111%. Further, the inhibition at 1 µM was 9.41% in the series on RAW264.7 [2]; 16.1% in the series on RAW264.7 [3]; -47.5% with RAW264.7 [6]; -9.17% in the series on RAW264.7 [7]; 4.65% in the series with RAW264.7 [8].

On to `COc1cc2oc(-c3cccc(NC(=O)c4ccccc4)c3)cc(=O)c2c(OC)c1OC`, for which the viability at 24 h, 1 µM in series [1] came to 95.8%. The inhibition at 1 µM is 3.31% in the series with RAW264.7 [2]; -11.3% in the series with RAW264.7 [3]; -17% with RAW264.7 [6]; 20.9% in the series on RAW264.7 [7]; 16.5% with RAW264.7 [8].

In the case of `COc1cccc(NC(=O)c2cccc(-c3cc(=O)c4c(OC)c(OC)c(OC)cc4o3)c2)c1`, in series [1], the viability at 24 h, 1 µM worked out at 84.2%. For the same compound, the inhibition at 1 µM in the series on RAW264.7 [2] is 12.3%; with RAW264.7 [3], -11.4%; with RAW264.7 [6], 7.66%; in the series on RAW264.7 [7] it was 34.1%; in the series with RAW264.7 [8], 82.6%.

In the case of `COc1ccccc1C(=O)Nc1cccc(-c2cc(=O)c3c(OC)c(OC)c(OC)cc3o2)c1`, in series [1], the viability at 24 h, 1 µM is 99.8%. Moreover, the inhibition at 1 µM is 1.11% with RAW264.7 [2]; 33.9% with RAW264.7 [3]; -15.8% with RAW264.7 [6]; -83.9% in the series on RAW264.7 [7]; 25.2% in the series with RAW264.7 [8].

As to `COc1cccc(NC(=O)c2cccc(-c3cc(=O)c4c(O)c(OC)c(OC)cc4o3)c2)c1`, the viability at 24 h, 1 µM in series [1] came out at 103%. Moreover, the inhibition at 1 µM amounted to 10.9% in the series with RAW264.7 [2]; 35.4% with RAW264.7 [3]; 1.96% in the series on RAW264.7 [6]; 5.85% in the series with RAW264.7 [7]; 18.5% with RAW264.7 [8].

Regarding `COc1cc2oc(-c3cccc(C(=O)Nc4ccc5c(c4)OCO5)c3)cc(=O)c2c(O)c1OC`, the viability at 24 h, 1 µM in series [1] turned out to be 97.1%. Further, the inhibition at 1 µM in the series with RAW264.7 [2] was -5.15%; in the series on RAW264.7 [3] it was -2.8%; in the series on RAW264.7 [6] it was 12.8%; with RAW264.7 [7], -7.5%; in the series on RAW264.7 [8] it was 27.1%.

Take `COc1cc2oc(-c3cccc(NC(=O)c4ccc5c(c4)OCO5)c3)cc(=O)c2c(OC)c1OC`: the viability at 24 h, 1 µM in series [1] came to 116%. Further, the inhibition at 1 µM was 7.13% in the series with RAW264.7 [2]; 17.1% in the series on RAW264.7 [3]; -9.56% with RAW264.7 [6]; -40.6% in the series on RAW264.7 [7]; 38.2% with RAW264.7 [8].

On to `COc1cc2oc(-c3cccc(C(=O)Nc4ccccc4)c3)cc(=O)c2c(O)c1OC`, for which the viability at 24 h, 1 µM in series [1] was 103%. In addition, the inhibition at 1 µM was 5.15% in the series with RAW264.7 [2]; 20% in the series with RAW264.7 [3]; -5.27% in the series on RAW264.7 [6]; 45.6% in the series on RAW264.7 [7]; 23.3% with RAW264.7 [8].

`COc1ccccc1NC(=O)c1cccc(-c2cc(=O)c3c(O)c(OC)c(OC)cc3o2)c1`: the viability at 24 h, 1 µM in series [1] was determined as 99.4%. For the same compound, the inhibition at 1 µM with RAW264.7 [2] is 7.19%; with RAW264.7 [3] it was 50.5%; in the series on RAW264.7 [6] it was -21.4%; in the series with RAW264.7 [7], 36.1%; with RAW264.7 [8] it was -2.41%. The IC50 in the series with RAW264.7 [4] amounted to 2380 nM. In addition, in the series on RAW264.7 [4], the inhibition result is “Dose-dependent effect”. Besides, the inhibition entry with RAW264.7 [5] was “Active”.

As for `COc1ccc(C(=O)Nc2cccc(-c3cc(=O)c4c(OC)c(OC)c(OC)cc4o3)c2)cc1`, in series [1], the viability at 24 h, 1 µM amounted to 102%. The inhibition at 1 µM in the series on RAW264.7 [2] is 11.1%; with RAW264.7 [3], 6.21%; in the series with RAW264.7 [6], -12.5%; with RAW264.7 [7], 20.4%; in the series with RAW264.7 [8], 12.2%.

On to `COc1cccc(C(=O)Nc2cccc(-c3cc(=O)c4c(OC)c(OC)c(OC)cc4o3)c2)c1`, for which, in series [1], the viability at 24 h, 1 µM worked out at 117%. Also, the inhibition at 1 µM in the series with RAW264.7 [2] was 19.9%; with RAW264.7 [3] it was 2.62%; with RAW264.7 [6], -52.5%; with RAW264.7 [7], -88%; in the series with RAW264.7 [8], 75.6%.

As for `COc1cc2oc(-c3cccc(C(=O)Nc4ccc5c(c4)OCO5)c3)cc(=O)c2c(OC)c1OC`, in series [1], the viability at 24 h, 1 µM amounted to 92%. For the same compound, the inhibition at 1 µM in the series on RAW264.7 [2] is 17%; in the series on RAW264.7 [3] it was 16.1%; in the series with RAW264.7 [6] it was 25.7%; in the series on RAW264.7 [7], 9.94%; in the series with RAW264.7 [8], -54.4%.

(Values after ChEMBL document CHEMBL4359854, “Repurposing mosloflavone/5,6,7-trimethoxyflavone-resveratrol hybrids: Discovery of novel p38-α MAPK inhibitors as potent interceptors of macrophage-dependent production of proinflammatory mediators” (Eur J Med Chem, 2019).)
